According to patent publication US10973810B2, “Methods for the treatment of neurological disorders” (Yumanity Therapeutics, Inc., priority 2017, dated 2021):

How the values were obtained:
SCD = experiment: Fatty acid saturation in guinea pig brain after oral administration of SCD inhibitors (GC-FID of FAME); type: in vivo; settings: 25 mg/kg orally twice daily for 5 days; brain 4 h after last dose; vs vehicle
Procedure: FIG. 18A-18F are a series of graphs showing an evaluation of fatty acid saturation in guinea pig brain after oral administration of SCD inhibitors. Guinea pigs were dosed orally with SCD inhibitors twice daily (every 12 hours) for 5 days. Guinea pigs were dosed with vehicle, SCD5 Selective Inhibitor 1 (“SCD5-SI-1”), SCD5 Selective Inhibitor 2 (“SCD5-SI-2”), CAY10566 (“CAY”) or SCD1/SCD5 Inhibitor 1 (“SCD1/5-1”), all compounds at 25 mg/kg with a volume-matched vehicle control. Four hours after the last dose on day 5, guinea pigs were sacrificed, and brains were removed after whole-body saline perfusion. […] Samples were evaluated on a gas chromatograph with a flame ionization detector (GC-FID) to quantify a comprehensive panel of fatty acid species. Brain samples were evaluated for levels of 16 (FIG. 18A) and 18 (FIG. 18B) carbon-containing fatty acids (C16, C18 respectively), and the desaturation index (DI) was calculated by taking the ratio of desaturated to saturated fatty acid for each species. […] Brain samples were evaluated for the relative levels of the positional isomers of C16, including C16:1 n7 palmitoleic acid (FIG. 18C) or C16:1 n9 monounsaturated fatty acids (FIG. 18D). […] Data was analyzed by one-way ANOVA with Tukey's post-hoc test to account for multiple comparisons. **p<0.01, ***p<0.005, ****p<0.0001. […]

[1] = test system: alpha-synuclein transfected U2OS cells; experiment: U2OS ATP assay of alpha-synuclein toxicity; type: cell-based, human; settings: 72 h after transfection/treatment; titration; normalized to DMSO control
Procedure: U2OS cells were transfected with empty vector control (“pcDNA”) or alpha-synuclein (“α-synuclein/pcDNA”) in combination with a scrambled (SCR) siRNA control (50 nM), or human SCD5 siRNA (10, 25 or 50 nM). (FIG. 12A) Cellular heath was assessed 48 h after transfection by evaluating ATP levels. Cell toxicity in the alpha-synuclein plus SCR siRNA was set as the floor of the assay, and then all samples were normalized to pcDNA with […] (set to 100%) to calculate the normalized percent rescue. Bars depict mean values of triplicate determinations; error bars indicate standard deviation. A two-tailed t-test was used to compare control conditions with SCR or SCD5 siRNA (*p 0.05). Cells transfected with alpha-synuclein were analyzed together by ANOVA with Dunnett's post-test to correct for multiple comparisons (**p 0.01, ****p 0.0001). Significance is shown for the comparison of each alpha-synuclein plus SCD5 siRNA concentration compared against the alpha-synuclein plus SCR control. (FIG. 12B) Quantitative RT-PCR was utilized to confirm the levels of SCD5 mRNA. […]
Powders of reference SCD inhibitors (CAY10566, A939572 and MF-438) were resuspended and serial diluted in DMSO. […] ATP content was then measured using the CellTiter-Glo® kit (Promega) with luminescence signals measured on an EnVision multimode plate reader (Perkin Elmer).

SMILES: Cc1nnc(-c2ccc(N3CCC(Oc4cc(F)ccc4Cl)CC3)nn2)o1 [CAY10566]
- C16 desaturation index (DI) in brain (SCD): decreased
- cellular ATP levels in alpha-synuclein transfected U2OS cells [1]: significantly reversed alpha-synuclein-dependent decreases in ATP levels
